Results from patent publication US5672715A, “Herbicidal substituted 3-aryl-pyrazoles” (Monsanto Company, priority 1995, dated 1997).

Columns and labels:
Format in all cases: in vivo
Downy Brome [1] = assay: pre-emergence herbicide test; conditions: Bromus tectorum, pre-emergence, 0.25 lb/A; read-out: % plant inhibition
Summary of the method: (§1)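 Read-out is percent inhibition at approximately 14 days after seeding and treating. Seeds sat on compacted topsoil beneath a cover layer containing compound in acetone or water, with greenhouse bottom-watering.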

Green Foxtail [2] = assay: pre-emergence herbicide test; conditions: Setaria viridis, pre-emergence; 0.25 lb/A; read-out: % plant inhibition
Summary of the method: as §1

Soybean [3] = assay: pre-emergence herbicide test; conditions: Glycine max, pre-emergence, 0.25 lb/A; read-out: % plant inhibition
Summary of the method: as §1

Wheat [4] = assay: pre-emergence herbicide test; conditions: Triticum aestivum, pre-emergence, 0.25 lb/A; read-out: % plant inhibition
Summary of the method: as §1

Cocklebur [5] = assay: pre-emergence herbicide test; conditions: Xanthium strumarium, pre-emergence, 0.25 lb/A; read-out: % plant inhibition
Summary of the method: as §1

Wild Oats [6] = assay: pre-emergence herbicide test; conditions: Avena fatua, pre-emergence, 0.25 lb/A; read-out: % plant inhibition
Summary of the method: as §1

Corn [7] = assay: pre-emergence herbicide test; conditions: Zea mays, pre-emergence, 0.25 lb/A; read-out: % plant inhibition
Summary of the method: as §1

Common Chickweed [8] = assay: pre-emergence herbicide test; conditions: pre-emergence, 0.25 lb/A; read-out: % plant inhibition
Summary of the method: as §1

Velvetleaf [9] = assay: pre-emergence herbicide test; conditions: Abutilon theophrasti, pre-emergence, 0.25 lb/A; read-out: % plant inhibition
Summary of the method: as §1

Blackgrass [10] = assay: pre-emergence herbicide test; conditions: Alopecurus myosuroides, pre-emergence, 0.25 lb/A; read-out: % plant inhibition
Summary of the method: as §1

Barnyardgrass [11] = assay: pre-emergence herbicide test; conditions: Echinochloa crus-galli, pre-emergence, 0.25 lb/A; read-out: % plant inhibition
Summary of the method: as §1

Bedstraw Catchweed [12] = assay: pre-emergence herbicide test; conditions: Galium aparine, pre-emergence, 0.25 lb/A; read-out: % plant inhibition
Summary of the method: as §1

Morning Glory [13] = assay: pre-emergence herbicide test; conditions: Ipomoea, pre-emergence, 0.25 lb/A; read-out: % plant inhibition
Summary of the method: as §1

Rape [14] = assay: pre-emergence herbicide test; conditions: pre-emergence, 0.25 lb/A; read-out: % plant inhibition
Summary of the method: as §1

Seedling Johnsongrass [15] = assay: pre-emergence herbicide test; conditions: Sorghum halepense, pre-emergence, 0.25 lb/A; read-out: % plant inhibition
Summary of the method: as §1

Birdseye Speedwell [16] = assay: pre-emergence herbicide test; conditions: pre-emergence, 0.25 lb/A; read-out: % plant inhibition
Summary of the method: as §1

Giant Foxtail [17] = assay: pre-emergence herbicide test; conditions: Setaria faberi, pre-emergence, 0.25 lb/A; read-out: % plant inhibition
Summary of the method: as §1

Downy Brome [18] = assay: post-emergence herbicide test; conditions: Bromus tectorum, post-emergence, 0.25 lb/A; read-out: % plant inhibition
Summary of the method: (§2)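 Plants grown in greenhouse soil pans for two to three weeks were sprayed with compound in about 0.4% v/v emulsifier at 170.3 kPa and 1870 L/Ha, at the stated application rates. Activity was scored as percent inhibition of each species.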

Green Foxtail [19] = assay: post-emergence herbicide test; conditions: Setaria viridis, post-emergence, 0.25 lb/A; read-out: % plant inhibition
Summary of the method: as §2

Soybean [20] = assay: post-emergence herbicide test; conditions: Glycine max, post-emergence, 0.25 lb/A; read-out: % plant inhibition
Summary of the method: as §2

Wheat [21] = assay: post-emergence herbicide test; conditions: Triticum aestivum, post-emergence, 0.25 lb/A; read-out: % plant inhibition
Summary of the method: as §2

Cocklebur [22] = assay: post-emergence herbicide test; conditions: Xanthium strumarium, post-emergence, 0.25 lb/A; read-out: % plant inhibition
Summary of the method: as §2

Wild Oats [23] = assay: post-emergence herbicide test; conditions: Avena fatua, post-emergence, 0.25 lb/A; read-out: % plant inhibition
Summary of the method: as §2

Corn [24] = assay: post-emergence herbicide test; conditions: Zea mays, post-emergence, 0.25 lb/A; read-out: % plant inhibition
Summary of the method: as §2

Common Chickweed [25] = assay: post-emergence herbicide test; conditions: post-emergence, 0.25 lb/A; read-out: % plant inhibition
Summary of the method: as §2

Velvetleaf [26] = assay: post-emergence herbicide test; conditions: Abutilon theophrasti, post-emergence, 0.25 lb/A; read-out: % plant inhibition
Summary of the method: as §2

Blackgrass [27] = assay: post-emergence herbicide test; conditions: Alopecurus myosuroides, post-emergence, 0.25 lb/A; read-out: % plant inhibition
Summary of the method: as §2

Barnyardgrass [28] = assay: post-emergence herbicide test; conditions: Echinochloa crus-galli, post-emergence, 0.25 lb/A; read-out: % plant inhibition
Summary of the method: as §2

Bedstraw Catchweed [29] = assay: post-emergence herbicide test; conditions: Galium aparine, post-emergence, 0.25 lb/A; read-out: % plant inhibition
Summary of the method: as §2

Morning Glory [30] = assay: post-emergence herbicide test; conditions: Ipomoea, post-emergence, 0.25 lb/A; read-out: % plant inhibition
Summary of the method: as §2

Rape [31] = assay: post-emergence herbicide test; conditions: post-emergence, 0.25 lb/A; read-out: % plant inhibition
Summary of the method: as §2

Seedling Johnsongrass [32] = assay: post-emergence herbicide test; conditions: Sorghum halepense, post-emergence, 0.25 lb/A; read-out: % plant inhibition
Summary of the method: as §2

Birdseye Speedwell [33] = assay: post-emergence herbicide test; conditions: post-emergence, 0.25 lb/A; read-out: % plant inhibition
Summary of the method: as §2

Giant Foxtail [34] = assay: post-emergence herbicide test; conditions: Setaria faberi, post-emergence, 0.25 lb/A; read-out: % plant inhibition
Summary of the method: as §2

SMILES | inhibition at 280.212 g/ha (Downy Brome [1]) | inhibition at 280.212 g/ha (Green Foxtail [2]) | inhibition at 280.212 g/ha (Soybean [3]) | inhibition at 280.212 g/ha (Wheat [4]) | inhibition at 280.212 g/ha (Cocklebur [5]) | inhibition at 280.212 g/ha (Wild Oats [6]) | inhibition at 280.212 g/ha (Corn [7]) | inhibition at 280.212 g/ha (Common Chickweed [8]) | inhibition at 280.212 g/ha (Velvetleaf [9]) | inhibition at 280.212 g/ha (Blackgrass [10]) | inhibition at 280.212 g/ha (Barnyardgrass [11]) | inhibition at 280.212 g/ha (Bedstraw Catchweed [12]) | inhibition at 280.212 g/ha (Morning Glory [13]) | inhibition at 280.212 g/ha (Rape [14]) | inhibition at 280.212 g/ha (Seedling Johnsongrass [15]) | inhibition at 280.212 g/ha (Birdseye Speedwell [16]) | inhibition at 280.212 g/ha (Giant Foxtail [17]) | inhibition at 280.212 g/ha (Downy Brome [18]) | inhibition at 280.212 g/ha (Green Foxtail [19]) | inhibition at 280.212 g/ha (Soybean [20]) | also measured
CCC(C)OC(=O)c1cc(-c2nn(C)c(C(F)(F)F)c2C)c(F)cc1Cl (stereo not drawn) [Compound 58] | 100% | 100% | 25% | 5% | 75% | 75% | 20% | 100% | 100% | 95% | 100% | 95% | 100% | 50% | 100% | 100% | 100% | 85% | 85% | 85% | inhibition at 280.212 g/ha (Wheat [21]): 18%; inhibition at 280.212 g/ha (Cocklebur [22]): 99%; inhibition at 280.212 g/ha (Wild Oats [23]): 85%; inhibition at 280.212 g/ha (Corn [24]): 20%; inhibition at 280.212 g/ha (Common Chickweed [25]): 95%; inhibition at 280.212 g/ha (Velvetleaf [26]): 100%; inhibition at 280.212 g/ha (Blackgrass [27]): 80%; inhibition at 280.212 g/ha (Barnyardgrass [28]): 85%; inhibition at 280.212 g/ha (Bedstraw Catchweed [29]): 90%; inhibition at 280.212 g/ha (Morning Glory [30]): 100%; inhibition at 280.212 g/ha (Rape [31]): 65%; inhibition at 280.212 g/ha (Seedling Johnsongrass [32]): 95%; inhibition at 280.212 g/ha (Birdseye Speedwell [33]): 100%; inhibition at 280.212 g/ha (Giant Foxtail [34]): 95%
COCC(C)OC(=O)c1cc(-c2nn(C)c(C(F)(F)F)c2C)c(F)cc1Cl (stereo not drawn) [Compound 52] | 100% | 100% | 5% | 0% | 65% | 85% | 75% | 95% | 100% | 100% | 100% | 90% | 70% | 60% | 100% | 95% | 100% | 100% | 98% | 95% | inhibition at 280.212 g/ha (Wheat [21]): 25%; inhibition at 280.212 g/ha (Cocklebur [22]): 100%; inhibition at 280.212 g/ha (Wild Oats [23]): 95%; inhibition at 280.212 g/ha (Corn [24]): 15%; inhibition at 280.212 g/ha (Common Chickweed [25]): 100%; inhibition at 280.212 g/ha (Velvetleaf [26]): 100%; inhibition at 280.212 g/ha (Blackgrass [27]): 95%; inhibition at 280.212 g/ha (Barnyardgrass [28]): 99%; inhibition at 280.212 g/ha (Bedstraw Catchweed [29]): 100%; inhibition at 280.212 g/ha (Morning Glory [30]): 99%; inhibition at 280.212 g/ha (Rape [31]): 100%; inhibition at 280.212 g/ha (Seedling Johnsongrass [32]): 99%; inhibition at 280.212 g/ha (Birdseye Speedwell [33]): 100%; inhibition at 280.212 g/ha (Giant Foxtail [34]): 100%
Cc1c(-c2cc(C(=O)OC3CCOC3)c(Cl)cc2F)nn(C)c1C(F)(F)F (stereo not drawn) [Compound 25] | 10% | 100% | 5% | 0% | 35% | 90% | 45% | 100% | 80% | 98% | 95% | 85% | 55% | 35% | 99% | 100% | 100% | 50% | 65% | 60% | inhibition at 280.212 g/ha (Wheat [21]): 16%; inhibition at 280.212 g/ha (Cocklebur [22]): 90%; inhibition at 280.212 g/ha (Wild Oats [23]): 35%; inhibition at 280.212 g/ha (Corn [24]): 20%; inhibition at 280.212 g/ha (Common Chickweed [25]): 90%; inhibition at 280.212 g/ha (Velvetleaf [26]): 100%; inhibition at 280.212 g/ha (Blackgrass [27]): 40%; inhibition at 280.212 g/ha (Barnyardgrass [28]): 85%; inhibition at 280.212 g/ha (Bedstraw Catchweed [29]): 65%; inhibition at 280.212 g/ha (Morning Glory [30]): 90%; inhibition at 280.212 g/ha (Rape [31]): 40%; inhibition at 280.212 g/ha (Seedling Johnsongrass [32]): 85%; inhibition at 280.212 g/ha (Birdseye Speedwell [33]): 95%; inhibition at 280.212 g/ha (Giant Foxtail [34]): 75%
